Laboratory results published in the supplement of paper PMC10307832.

Columns and labels:
Assay in all cases: relative viability (nuclei count vs DMSO), 5 days (fraction); higher = more cells survive
MK-8033 + Pictilisib = compound: Cn1cc(-c2cnc3ccc4ccc(CS(=O)(=O)NCc5ccccn5)cc4c(=O)c3c2)cn1 [MK-8033] + CS(=O)(=O)N1CCN(Cc2cc3nc(-c4cccc5[nH]ncc45)nc(N4CCOCC4)c3s2)CC1 [Pictilisib] (partner 1 µM)
Outline: (§1)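 Relative viability divides the nuclei count in treated wells by that in vehicle wells. Lung cancer cell lines were seeded in 1536-well plates, dosed by pin tool the next day, and fixed and stained after 5 days in one step with final 0.05% Triton X-100, 1% formaldehyde and 1 ug/ml Hoechst. Dosing was a single drug or a fixed anchor-drug dose plus five library-drug doses (not always all listed) in √10 steps, and values are medians of duplicate plates imaged at 4×.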

Irinotecan + OSI-027 = compound: CCc1c2c(nc3ccc(OC(=O)N4CCC(N5CCCCC5)CC4)cc13)-c1cc3c(c(=O)n1C2)COC(=O)[C@]3(O)CC [Irinotecan] + COc1cccc2cc(-c3nc([C@H]4CC[C@H](C(=O)O)CC4)n4ncnc(N)c34)[nH]c12 [OSI-027] (partner 0.5 µM)
Outline: as §1

RU-SKI 43 + Tozasertib = compound: CC[C@@H](C)CNCC(=O)N1CCC2=C([C@@H]1COC3=CC=CC(=C3)C)C=CS2 [RU-SKI 43] + Cc1cc(Nc2cc(N3CCN(C)CC3)nc(Sc3ccc(NC(=O)C4CC4)cc3)n2)n[nH]1 [Tozasertib] (partner 0.1 µM)
Outline: as §1

MK-8033 + Vorinostat = compound: Cn1cc(-c2cnc3ccc4ccc(CS(=O)(=O)NCc5ccccn5)cc4c(=O)c3c2)cn1 [MK-8033] + O=C(CCCCCCC(=O)Nc1ccccc1)NO [Vorinostat] (partner 1 µM)
Outline: as §1

| Cell Line | relative viability (MK-8033 + Pictilisib; first compound 0.02 µM) | relative viability (MK-8033 + Pictilisib; first compound 0.06325 µM) | relative viability (MK-8033 + Pictilisib; first compound 0.2 µM) | relative viability (MK-8033 + Pictilisib; first compound 0.6325 µM) | relative viability (MK-8033 + Pictilisib; first compound 2 µM) | relative viability (Irinotecan + OSI-027; first compound 0.6325 µM) | relative viability (Irinotecan + OSI-027; first compound 2 µM) | relative viability (Irinotecan + OSI-027; first compound 6.325 µM) | relative viability (Irinotecan + OSI-027; first compound 20 µM) | relative viability (RU-SKI 43 + Tozasertib; first compound 0.1 µM) | relative viability (RU-SKI 43 + Tozasertib; first compound 0.3162 µM) | relative viability (RU-SKI 43 + Tozasertib; first compound 1 µM) | relative viability (RU-SKI 43 + Tozasertib; first compound 3.162 µM) | relative viability (RU-SKI 43 + Tozasertib; first compound 10 µM) | relative viability (MK-8033 + Vorinostat; first compound 0.02 µM) | relative viability (MK-8033 + Vorinostat; first compound 0.06325 µM) | relative viability (MK-8033 + Vorinostat; first compound 0.2 µM) | relative viability (MK-8033 + Vorinostat; first compound 0.6325 µM) | relative viability (MK-8033 + Vorinostat; first compound 2 µM) |
| --- | --- | --- | --- | --- | --- | --- | --- | --- | --- | --- | --- | --- | --- | --- | --- | --- | --- | --- | --- |
| NCI-H460 | 0.432 | 0.285 | 0.395 | 0.253 | 0.402 | 0.347 | 0.494 | 0.12 | 0.043 | 0.545 | 0.4 | 0.544 | 0.504 | 0.274 | 0.79 | 0.473 | 0.656 | 0.742 | 0.726 |
| NCI-H520 | 0.28 | 0.221 | 0.295 | 0.283 | 0.323 | 0.292 | 0.316 | 0.218 | 0.192 | 0.456 | 0.422 | 0.428 | 0.401 | 0.408 | 0.636 | 0.689 | 0.777 | 0.705 | 0.657 |
| NCI-H596 | 0.352 | 0.319 | 0.379 | 0.384 | 0.397 | 0.579 | 0.927 | 0.728 | 0.581 | 0.996 | 0.849 | 0.869 | 0.954 | 0.849 | 0.59 | 0.629 | 0.549 | 0.64 | 0.568 |
| NCI-H647 | 0.444 | 0.421 | 0.398 | 0.41 | 0.471 | 0.564 | 0.634 | 0.277 | 0.183 | 0.262 | 0.261 | 0.227 | 0.231 | 0.262 | 0.633 | 0.378 | 0.527 | 0.598 | 0.75 |
| NCI-H650 | 0.849 | 0.824 | 0.871 | 0.723 | 0.834 | 0.467 | 0.587 | 0.316 | 0.277 | 0.724 | 0.717 | 0.765 | 0.709 | 0.654 | 0.512 | 0.5 | 0.496 | 0.428 | 0.371 |
| NCI-H661 | 0.447 |  | 0.394 | 0.454 | 0.423 | 0.653 | 0.654 | 0.415 | 0.212 | 0.345 | 0.349 | 0.345 | 0.335 | 0.365 | 0.785 | 0.71 | 0.793 | 0.761 | 0.767 |
| NCI-H727 | 0.52 | 0.451 | 0.354 | 0.5 | 0.273 | 0.338 | 0.499 | 0.391 | 0.428 | 0.658 | 0.583 | 0.54 | 0.564 | 0.629 | 1.2 | 0.981 | 1.11 | 1.16 | 1.13 |
| NCI-H838 | 0.462 | 0.447 | 0.425 | 0.423 | 0.394 | 0.508 | 0.37 | 0.368 | 0.257 | 0.243 | 0.242 | 0.273 | 0.258 | 0.254 | 0.765 | 0.67 | 0.674 | 0.736 | 0.734 |
| NCI-H1355 | 0.424 | 0.302 | 0.442 | 0.393 | 0.442 |  | 0.375 | 0.269 | 0.25 | 0.516 | 0.617 | 0.618 | 0.562 | 0.447 | 0.62 | 0.549 | 0.62 | 0.658 | 0.592 |
